Data taken from publication PMC6615598, “Novel antibiotics effective against gram-positive and -negative multi-resistant bacteria with limited resistance” (PLoS Biology, 2019).
Starred links: 1 amine or outer side, 2 acyl side, 3 side chain; linkers in the order of their positions; H or OH if unused. Non-standard residues stand in square brackets, D forms with d. Residues, ends and D or L forms follow the SMILES beside them. azaβ3(1Nal) = O=C(CN(Cc1cccc2ccccc12)N[*:1])[*:2]

Columns and labels:
S. aureus BCB/POE = test: microbe, parasite or virus in culture
Description: (§1) (10−4 M final concentrations). At selected time intervals, 100 μl of reaction mixture was collected, quenched by 200 μl 95% EtOH, and adjusted at pH 2 to prevent peptide adsorption to serum proteins. […] Supernatants were analyzed by RP-HPLC on an Xbridge C18 column with a linear gradient of water, 0.08% TFA, and acetonitrile with 1% TFA. HPLC peak areas were used to calculate the percentages of intact compound remaining at the various time points. MIC and MBC values were determined in triplicate in many ESKAPE clinical isolates, including a dozen MDR S. aureus, by the broth microdilution method. Peptidomimetics and antibiotics were assayed in a concentration range of 1 to 128 μM. The bacterial inoculum (5 × 10^5 colony-forming units [CFUs]/well) was prepared in MHB or CAMHB (150 μl). A Biotek Synergy 2 spectrophotometer was used to record the results after 18–20 h incubation at 35°C (±2°C). […] After every hour of culture for 4 h, serial dilutions were plated on BHI plates and incubated overnight at 37°C, and then the CFUs were counted and expressed as log CFU/ml. Phosphate-buffered saline (PBS)-exposed S. aureus MRSA was included as a control.
(§2) Supplementary file pbio.3000337.s007.docx: S1 Table Antibacterial activity of the 4 peptidomimetics focusing on 9 S. aureus MDR clinical isolates. Clinical isolates BCB/POE and 740404 DUN are from human sepsis. The other strains are from catheter infections or suppurating wounds. Brilacidin was used as a control. MDR, multidrug resistant. (DOCX) Click here for additional data file.

S. aureus 740404 DUN = test: microbe, parasite or virus in culture
Description: as §1, §2

S. aureus 702697 HOU = test: microbe, parasite or virus in culture
Description: as §1, §2

S. aureus ROUS = test: microbe, parasite or virus in culture
Description: as §1, §2

S. aureus COB = test: microbe, parasite or virus in culture
Description: as §1, §2

S. aureus FORT = test: microbe, parasite or virus in culture
Description: as §1, §2

S. aureus PM64 = test: microbe, parasite or virus in culture
Description: as §1, §2

S. aureus 66534 E = test: microbe, parasite or virus in culture
Description: as §1, §2

E. coli 13090 = test: microbe, parasite or virus in culture
Description: (§3) For 15 d in MHB, MICs were determined daily for each pseudopeptide and their antibiotic controls. This was done using cells from the well in which the compound concentration was one-half of the MIC (1/2MIC). For each compound, the 1/2MIC well from the previous day’s MIC assay plate was re-suspended and the bacteria grown to a density of about 10^8 cells ml−1. The suspension was diluted in MHB or CAMHB (10^6 cells/ml) and then used to determine the MIC of the same compound determined by micro broth dilution. All MIC measurements were performed in duplicate. Aliquots of the 5 × 10^4 cell/ml dilutions for each 1/2MIC well were periodically plated on MHB and incubated at 35°C for 18 h to verify cell density by colony counts and for visual inspection of colony phenotypes. To control compound stability, peptide solution MICs were determined during and at the end of the 15 d and were compared to cells unexposed to antibiotics. In vivo resistance was also assessed in treated mice (1.5 mg.kg^−1) for 4 d (sepsis) or 6 d (skin abscesses). […] The broth microdilution method was performed as per EUCAST recommendations on 5 independent colonies per mouse (3 mice per set, 15 colonies per drug tested). For severe sepsis and subcutaneous abscesses, in vivo resistance was determined by plating aliquots of crude kidney extracts or abscesses on plates containing 1-, 2-, 4-, or 8-fold the peptide MICs 7 or 3 d post infections, respectively.

E. coli K12 = test: microbe, parasite or virus in culture
Description: as §3

P. aeruginosa 15643 = test: microbe, parasite or virus in culture
Description: as §3

E. coli MCR1 = test: microbe, parasite or virus in culture
Description: as §3

MSSA (Newman) = test: microbe, parasite or virus in culture; settings: MSSA (Newman)
Description: as §3

MRSA (Mu3) = test: microbe, parasite or virus in culture; settings: MRSA (Mu3)
Description: as §3

S. aureus N315 (MRSA) = test: microbe, parasite or virus in culture; settings: N315
Description: as §1

S. aureus Mu3 (MRSA) = test: microbe, parasite or virus in culture; settings: Mu3
Description: as §1

S. aureus Newman = test: microbe, parasite or virus in culture; settings: Newman
Description: as §1

S. aureus MRSA = test: Time-kill assay at 30-fold MIC; type: cell-based; settings: 4 h
Description: as §1

[1] = E. coli 13090, d0 of serial passages
[2] = E. coli 13090, d14 of serial passages at sub-MIC
[3] = E. coli K12, d0 of serial passages
[4] = E. coli K12, d14 of serial passages at sub-MIC
[5] = P. aeruginosa 15643, d0 of serial passages
[6] = P. aeruginosa 15643, d14 of serial passages at sub-MIC
[7] = E. coli MCR1, d0 of serial passages
[8] = E. coli MCR1, d14 of serial passages at sub-MIC
[9] = d14 of serial passages at sub-MIC

Row | Compound | MIC (E. coli 13090; [1]) | MIC (E. coli 13090; [2]) | MIC (E. coli K12; [3]) | MIC (E. coli K12; [4]) | MIC (P. aeruginosa 15643; [5]) | MIC (P. aeruginosa 15643; [6]) | MIC (E. coli MCR1; [7]) | MIC (E. coli MCR1; [8]) | MIC (MSSA (Newman); d0 of serial passages) | MIC (MSSA (Newman); [9]) | MIC (MRSA (Mu3); [9]) | MIC (S. aureus N315 (MRSA)) | MIC (S. aureus Mu3 (MRSA)) | MIC (S. aureus Newman) | Bactericidal activity in time-kill curves (S. aureus MRSA) | other results
1 | CC(C)[C@@H]1NC(=O)[C@H](CCCNC(=N)N)NC(=O)[C@H](CCCNC(=N)N)NC(=O)[C@H](Cc2c[nH]c3ccccc23)NC(=O)[C@H](Cc2ccccc2)NC(=O)[C@H](Cc2ccccc2)NC(=O)[C@H](CCCCN)NC1=O [Pep18] (cyclo(FFWRRVK)) | 16 (16.4) μM | 64 (65.6) μM | 16 (16.4) μM | 64 (65.6) μM | 16 (16.4) μM | 16 (16.4) μM | 16 (16.4) μM | 64 (65.6) μM | 16 (16.4) μM | 64 (65.6) μM | 16 (16.4) μM | 8 (8.2) μM | 8 (8.2) μM | 16 (16.4) μM | higher bactericidal activities than vancomycin | MIC (S. aureus BCB/POE; MDR S. aureus clinical isolate BCB/POE, human sepsis): 32 mg/L^-1; MIC (S. aureus 740404 DUN; MDR S. aureus clinical isolate 740404 DUN, human sepsis): 32 mg/L^-1; MIC (S. aureus 702697 HOU; MDR S. aureus clinical isolate 702697 HOU): 16 mg/L^-1; MIC (S. aureus ROUS; MDR S. aureus clinical isolate ROUS): 8 mg/L^-1; MIC (S. aureus COB; MDR S. aureus clinical isolate COB): 32 mg/L^-1; MIC (S. aureus FORT; MDR S. aureus clinical isolate FORT): >32 mg/L^-1; MIC (S. aureus PM64; MDR S. aureus clinical isolate PM64): 32 mg/L^-1; MIC (S. aureus 66534 E; MDR S. aureus clinical isolate 66534 E): 32 mg/L^-1
2 | CC(C)[C@@H]1NC(=O)[C@H](CCCNC(=N)N)NC(=O)[C@H](CCCNC(=N)N)NC(=O)CN(Cc2cccc3ccccc23)NC(=O)[C@H](Cc2ccccc2)NC(=O)CN(Cc2cccc3ccccc23)NC(=O)[C@H](CCCCN)NC1=O [Pep19] (cyclo([azaβ3(1Nal)]F[azaβ3(1Nal)]RRVK)) | 8 (8.8) μM | 8 (8.8) μM | 4 (4.4) μM | 8 (8.8) μM | 8 (8.8) μM | 16 (16.2) μM | 8 (8.8) μM | 8 (8.8) μM | 4 (4.4) μM | 4 (4.4) μM | 8 (8.8) μM | 4 (4.5) μM | 4 (4.5) μM | 4 (4.5) μM | higher bactericidal activities than vancomycin | MIC (S. aureus BCB/POE; BCB/POE): 8 mg/L^-1; MIC (S. aureus 740404 DUN; 740404 DUN): 8 mg/L^-1; MIC (S. aureus 702697 HOU; 702697 HOU): 4 mg/L^-1; MIC (S. aureus ROUS; ROUS): 2 mg/L^-1; MIC (S. aureus COB; COB): 2 mg/L^-1; MIC (S. aureus FORT; FORT): 8 mg/L^-1; MIC (S. aureus PM64; PM64): 8 mg/L^-1; MIC (S. aureus 66534 E; 66534 E): 2 mg/L^-1; MIC (MRSA (Mu3); d0 of serial passages): 4 (4.4) μM
